According to patent US20070148703A1, “Method of screening remedy for breast cancer” (Genomembrane, Inc., priority 2003, published 2007):
Several values for one entry are separate records, joined by “and”; a condition that tells them apart may be missing. Identical values can stand only once.

Columns and labels:
Type in all cases: cell-based, human
MCF-7 cells = assay: MCF-7 cell proliferation with estrone-3-sulfate or estradiol, with or without BSP
Protocol: It was examined whether cell proliferation promoting effect on MCF-7 cells (ATCC-HTB22) by estrone-3-sulfate is inhibited by suppressing intracellular accumulation of estrone-3-sulfate. MCF-7 cells were seeded on a 96-well plate at a concentration of 8×10^4 cells/cm^2, and cultured for 1 day. Then, a medium containing estrone-3-sulfate (Sigma Chemicals) at various concentrations, ranging from 10 pM to 10 μM, and 100 μM of bromosulfophtalein (BSP: Sigma Chemicals), and a medium containing estradiol (Sigma Chemicals) at various concentrations, ranging from 1 pM to 10 nM, and 100 μM of BSP were added respectively, and culture was conducted for 3 more days. Subsequently, cell amount was measured.
However, this is considered to be estrogen activity by BSP itself or metabolite thereof. This effect decreased relatively with the increase of estrogen concentration. […] Accordingly, it is considered that the uptake of estrone-3-sulfate into the cells was inhibited by BSP, and that of estradiol, which is highly lipid-soluble, was not inhibited, and therefore there was no change in cell proliferation promoting effect.

T-47D cells [1] = assay: Inhibition of [3H] estrone-3-sulfate uptake by T-47D cells
Protocol: The cell suspension and a solution containing a radiolabeled test compound in the transport medium were separately incubated at 37° C. for 20 min, then transport was initiated by mixing them. […] Each cell pellet was solubilized in 3 N KOH, and neutralized with HCl. Then, the associated radioactivity was measured by means of a liquid scintillation counter using Clearsol-1 (Nacalai tesque) as a liquid scintillation fluid.
To characterize the substrate specificity of the transport system, the inhibitory effects of hormones, their conjugated metabolites, and various organic compounds on [^3H] estrone-3-sulfate uptake by T-47D cells were examined. The results are shown in (Table 1). In Table 1, values in control (%) are indicated as the ratio in comparison to uptake amount of estrone-3-sulfate in control which was set at 100%. Each value represents the mean±S.E.M. (n=4), and *P<0.05 indicates comparison to control (Student's test).

T-47D cells [2] = assay: T-47D cell proliferation assay
Protocol: (a) T-47D cells were seeded at a density of 8,000 cells/well and cultured. 24 hours after seeding (day 1), estradiol (1 pM, closed triangles), estrone-3-sulfate (100 nM, closed circles), DMSO (0.1, open triangles) or water (open circles) was added. After the designated number of days, T-47D cells were trypsinized and counted.
(b) T-47D cells were proliferated in the presence of various concentrations of estradiol (closed triangles) or estrone-3-sulfate (closed circles), ranging from 10^−16 to 10^−11 M, or from 10^−11 to 10^−6 M, respectively. The cell numbers were counted at day 6 after seeding. Each value represents the mean±S.E.M. (n=3).
T-47D cells were routinely proliferated in RPMI 1640 medium (Sigma Chemicals) containing phenol red and 10% FCS in a humidified incubator at 37° C. and 5% CO2. For the proliferation assay, FCS was incubated with 0.5% dextran-coated charcoal (DCC) at 4° C. overnight, then the medium was decanted and DCC was filtered off (0.2 μm) to remove steroid hormones. This procedure was repeated three times. Then T-47D cells were seeded into 96-well plates at a density of 8,000 cells/well in phenol red-free RPMI 1640 medium containing 2.5% DCC-treated FCS. […] At designated days after seeding, the cells were treated with trypsin, and cell numbers were counted.

T-47D cells [3] = assay: Uptake of estrone-3-sulfate by T-47D cells (time course, cation and concentration dependence); details: 5.1 nM to 50 μM, 37° C., 10 min, saturable uptake; mean±S.E.M.
Protocol: Cultured T-47D cells were incubated at 37° C. over 35 min in medium containing [^3H] estrone-3-sulfate (7.1 nM) with (open circles) or without (closed circles) 1 mM unlabeled estrone-3-sulfate. Each value represents the mean±S.E.M. (n=4). When the error bars are not shown, they are smaller than the symbols.
The uptake rate of [^3H] estrone-3-sulfate (7.1 nM) for 10 min was measured in the presence or absence of extracellular Na^+. Extracellular Na^+ was replaced with K^+, Li^+, or N-methylglucamine^+ (NMG^+). Each value represents the mean±S.E.M. (n=4).
The uptake of estrone-3-sulfate at various concentrations, ranging from 5.1 nM to 50 μM, was measured at 37° C. for 10 min. […]
Transport experiments were performed as described previously (Tamai et al., 2001). […] Then, the associated radioactivity was measured by means of a liquid scintillation counter using Clearsol-1 (Nacalai tesque) as a liquid scintillation fluid.
Cellular protein content was determined according to the method of Bradford by using a BioRad protein assay kit (Hercules) with bovine serum albumin as the standard (Bradford, 1976). […] All data were expressed as means±S.E.M., and statistical analysis was performed by the use of Student's t test with P<0.05 as the criterion of significance. […]

[4] = inhibitor 100 μM, mean±S.E.M. (n=4)
[5] = inhibitor 1000 μM, mean±S.E.M. (n=4)
[6] = inhibitor 5 μM, mean±S.E.M. (n=4)
[7] = inhibitor 50 μM, mean±S.E.M. (n=4)

Row | Structure (SMILES) | [3H] estrone-3-sulfate uptake, Control (%) (T-47D cells [1]; [4]) | [3H] estrone-3-sulfate uptake, Control (%) (T-47D cells [1]; [5]) | [3H] estrone-3-sulfate uptake, Control (%) (T-47D cells [1]; [6]) | [3H] estrone-3-sulfate uptake, Control (%) (T-47D cells [1]; [7]) | inhibitory effect on [3H] estrone-3-sulfate uptake, in words (T-47D cells [1]; concentration not given) | further results
1 | O=C1OC(c2ccc(O)c(S(=O)(=O)O)c2)(c2ccc(O)c(S(=O)(=O)O)c2)c2c(Br)c(Br)c(Br)c(Br)c21 [Bromosulfophtalein] | 18.9 ± 2.8 * % | 14.2 ± 1.2 * % |  |  |  | cell proliferation of MCF-7 cells with 100 μM BSP (MCF-7 cells; 100 μM BSP added simultaneously, low estrone-3-sulfate concentration): cell proliferation promoting effect was observed; cell proliferation promoting effect by BSP (MCF-7 cells; 100 μM BSP plus 10 μM estrone-3-sulfate): inhibited; cell proliferation promoting effect by BSP (MCF-7 cells; 100 μM BSP plus estradiol): no change; [3H] estrone-3-sulfate uptake, Control (%) (T-47D cells [1]; inhibitor 100 μM, mean±S.E.M. (n=4), listed as bromosulfophthalein): 18.9%
2 | C[C@]12CC[C@H](O)CC1=CC[C@@H]1[C@@H]2CC[C@]2(C)C(=O)CC[C@@H]12 [Dehydroepiandrosterone] |  |  | 75.6 ± 3.8 * % | 44.8 ± 8.0 * % |  | 
3 | C[C@H]1O[C@@H](O[C@H]2[C@@H](O)C[C@H](O[C@H]3[C@@H](O)C[C@H](O[C@H]4CC[C@@]5(C)[C@H](CC[C@@H]6[C@@H]5C[C@@H](O)[C@]5(C)[C@@H](C7=CC(=O)OC7)CC[C@]65O)C4)O[C@@H]3C)O[C@@H]2C)C[C@H](O)[C@@H]1O [Digoxin] |  |  |  |  | no effect | [3H] estrone-3-sulfate uptake, Control (%) (T-47D cells [1]; inhibitor 100 μM, DMSO 1%, vs Control (DMSO 1%)): 90.3 ± 3.5%; [3H] estrone-3-sulfate uptake, Control (%) (T-47D cells [1]; inhibitor 1000 μM, DMSO 1%, vs Control (DMSO 1%)): 94.8 ± 4.4%
4 | C[C@]12CC[C@@H]3c4ccc(O)cc4CC[C@H]3[C@@H]1CC[C@@H]2O[C@@H]1O[C@H](C(=O)O)[C@@H](O)[C@H](O)[C@H]1O [Estradiol-17β-glucuronide] |  |  | 73.8 ± 8.7% | 90.4 ± 11.5% |  | inhibitory effect on [3H] estrone-3-sulfate uptake, in words (T-47D cells [1]; 50 μM): no effect
5 | C[C@]12CC[C@@H]3c4ccc(O)cc4CC[C@H]3[C@@H]1CC[C@@H]2O [Estradiol] |  |  | 76.9 ± 4.8 * % | 45.7 ± 5.3 * % |  | 
6 | C[C@]12CC[C@@H]3c4ccc(OS(=O)(=O)O)cc4CC[C@H]3[C@@H]1CCC2=O [Estrone-3-sulfate] |  |  | 34.7 ± 4.3 * % | 6.6 ± 0.9 * % |  | proliferation of T-47D cells compared with solvent alone (T-47D cells [2]; 100 nM): stimulated; EC50 (T-47D cells [2]; 6 days after seeding, nonlinear regression analysis, read-out: median effective concentration (EC50), stimulation of T-47D proliferation): ~17.1 nM and 17.1 nM; cell proliferation promoting effect on MCF-7 cells (MCF-7 cells; estrogen only (positive control), 3 days): cell proliferation promoting effect was observed; Km (T-47D cells [3]): 3.9 ± 0.78 µM; Vmax of estrone-3-sulfate uptake (T-47D cells [3]): 576.3±32.9 pmol/mg protein/10 min; [3H] estrone-3-sulfate uptake, Control (%) (T-47D cells [1]; inhibitor 5 μM, mean±S.E.M. (n=4), listed as estrone-3-sulfate): 34.7%; [3H] estrone-3-sulfate uptake, Control (%) (T-47D cells [1]; inhibitor 50 μM, mean±S.E.M. (n=4), listed as estrone-3-sulfate): 6.6%
7 | C[C@]12CC[C@@H]3c4ccc(O)cc4CC[C@H]3[C@@H]1CCC2=O [Estrone] |  |  | 78.8 ± 3.3 * % | 64.8 ± 7.5 * % |  | 
8 | CC1(C)S[C@@H]2[C@H](NC(=O)Cc3ccccc3)C(=O)N2[C@H]1C(=O)O [Penicillin G] | 83.2 ± 2.0 * % | 75.9 ± 10.5% |  |  | slight inhibitory effects | 
9 | CCCN(CCC)S(=O)(=O)c1ccc(C(=O)O)cc1 [Probenecid] | 103.2 ± 10.2% | 79.1 ± 3.8 * % |  |  | slight inhibitory effects | 
10 | O=C(O)c1ccccc1O [Salicylate] | 94.9 ± 6.0% | 82.7 ± 7.3% |  |  | no effect | 
11 | C[C@H](CCC(=O)NCCS(=O)(=O)O)[C@H]1CC[C@H]2[C@@H]3[C@H](O)C[C@@H]4C[C@H](O)CC[C@]4(C)[C@H]3C[C@H](O)[C@]12C [Taurocholic acid] | 69.3 ± 2.7 * % | 24.1 ± 2.3 * % |  |  |  | [3H] estrone-3-sulfate uptake, Control (%) (T-47D cells [1]; inhibitor 100 μM, mean±S.E.M. (n=4), listed as taurocholic acid): 69.3%
12 | CC[N+](CC)(CC)CC [Tetraethylammonium] | 87.4 ± 1.5 * % | 112.7 ± 18.6% |  |  | no effect | 
13 | Nc1ccc(C(=O)NCC(=O)O)cc1 [p-Aminohippuric acid] | 87.8 ± 1.5% | 112.7 ± 18.6% |  |  | no effect | 
